Measurements published in PubChem BioAssay AID2305 (GlaxoSmithKline (GSK), 2010).

test system: P. falciparum 3D7 growth, pLDH absorbance; test: P. falciparum 3D7 growth inhibition, dose response, strain 3D7 (AID 2305)

SMILES | IC50
Oc1ccccc1CNCC(O)c1cccc(C(F)(F)F)c1 (stereo not drawn) | 530 nM
COc1ccc2nccc([C@@H](O)CN3CCC(NC(=O)C(c4cc5ccccc5o4)N4CCN(C(c5ccccc5)c5ccccc5)CC4)CC3)c2c1 (stereo partly drawn) | 150 nM
FC(F)(F)c1ccc2nc(-c3ccc(-c4ccc(CNCC5CCCO5)cc4)cc3)[nH]c2c1 (stereo not drawn) | 410 nM
CC(CN(C)C)C(=O)Nc1ccc(-c2ccc(-c3nc4ccccc4[nH]3)s2)cc1 (stereo not drawn) | 720 nM
COc1ccc2nccc(N3CCC(CCNCc4ccc5c(n4)NC(=O)CO5)CC3)c2c1 | 700 nM
O=C(Nc1cccc(-c2nc3ccccc3[nH]2)c1)c1ccc(-c2cccc([N+](=O)[O-])c2)o1 | 150 nM
COCCNCc1nc(-c2ccc3c(Nc4ccc(Cl)cc4F)ccnc3c2)cs1 | 1080 nM
CCOC(=O)CNC(=O)c1cc(=O)c2ccccc2o1 | 210 nM
COc1cc(C2Nc3ccc4ccccc4c3C3=C2C(=O)CC(C)(C)C3)ccc1Oc1ccc([N+](=O)[O-])cc1C#N (stereo not drawn) | 660 nM
CCc1cn2c3c(cc(C(=O)N[C@@H](Cc4ccccc4)[C@H](O)CNC4CCOCC4)cc13)N(CC(F)(F)F)S(=O)(=O)CC2 | 30 nM
Cc1cc(-c2ccc3c(c2)CCN(CCC2CCC(NC(=O)/C=C/c4ccccc4F)CC2)CC3)on1 (stereo not drawn) | 810 nM
O=C(CNC1CCCCC1)c1ccc(O)c(O)c1 | 660 nM
CN1CCC(NCc2cccc(-c3cccc(S(=O)(=O)NCc4ccccc4)c3)c2)CC1 | 750 nM
Cc1cc2c(NC(=O)NC3CCN(CCc4ccccc4Cl)CC3)cccc2cn1 | 390 nM
CCNc1cc(C)nc(Nc2ccc(NC(=O)c3ccc(OC)c(OC)c3)cc2)n1 | 1070 nM
CC(C)(C)C(=O)Nc1c(-c2cc(=O)oc3cc4c(cc23)CCC4)oc2ccccc12 | 1260 nM
O=C(/C=C/c1ccc(-c2ccccc2)cc1)NCCCCCN1CCC(c2c[nH]c3ccccc23)CC1 | 850 nM
O=C(Nc1ccnc2ccccc12)NC1CCN(CCc2ccccc2)CC1 | 360 nM
COc1ccc(N2CCN(CCCCNC(=O)c3ccc(NC(=O)c4ccc(Cl)cc4)cc3)CC2)c(C)c1 | 760 nM
Cc1cc(OCc2ccncc2)cc2c1C(=O)CC(C)(C)O2 | 180 nM
COc1ccc2nccc(N(C)CC3(O)CCC(NCc4cc5c(cn4)OCCO5)CC3)c2n1 (stereo not drawn) | 680 nM
Cc1ccc(Nc2nc(NN=Cc3ccc(-c4ccc([N+](=O)[O-])cc4)o3)nc(N3CCOCC3)n2)cc1Cl | 650 nM
CN1CCN(c2ccnc3ccc(NC(=O)Nc4cccc5c(Br)cccc45)cc23)CC1 | 150 nM
CCS(=O)(=O)c1ccc(-c2cnc3[nH]cc(-c4ccc(N)cc4)c3c2)cc1 | 850 nM
CC(C)CNC(=O)c1cncc(-c2ccc(CNCCCc3ccccc3)cc2)c1 | 770 nM

SMILES | IC50
CC(C)(C)c1ccc(CNCC(C)(C)c2nc(-c3ccc(Cl)c(O)c3)c(-c3ccnc(N)n3)[nH]2)cc1 | 700 nM
Cc1ccc(OC2CCN(CCCCC3(C)C(=O)Nc4ccccc43)CC2)cc1 (stereo not drawn) | 740 nM
Cc1ccc(NC(=O)c2cccc(CN3CCCN(Cc4cccc(O)c4)CC3)c2)cc1F | 710 nM
Cc1cc2ncn(-c3ccnc(N4CCN(CCCN5CCCC5)CC4)n3)c2cc1C | 830 nM
O=C(NCCCN1CCC(NC(=O)c2ccc(-c3cccnc3)cc2)CC1)c1ccc(Cl)c(Cl)c1 | 850 nM
O=C(/C=C/c1ccccc1Cl)Nc1ccc(Br)c(OCCN2CCN(CCN3CCOCC3)CC2)c1 | 760 nM
CCCc1cc(Cc2cnc(N)nc2N)cc(CCC)c1OCCCCC(=O)OC | 40 nM
COc1ccc2ncc(C#N)c(CCN3CCC(NCc4cnc5c(c4)OCCO5)CC3)c2n1 | 600 nM
CCC(Cc1cnc2nc(N)nc(N)c2n1)c1ccc(C(=O)O)cc1 (stereo not drawn) | 250 nM
COCCn1c(-c2cccc(Cl)c2)nn(-c2ccc([N+](=O)[O-])cc2C#N)c1=S | 180 nM
CN(C)c1cccc(NC(=O)N[C@H]2N=C(c3ccccc3)c3ccccc3N(CC(=O)N3CCCC3)C2=O)c1 | 250 nM
Cc1[nH]cnc1CSCCNC(=NCCCCCCCCN=C(NC#N)NCCSCc1nc[nH]c1C)NC#N | 1270 nM
Nc1nccc2ccc(-c3cccc(OCc4ccccc4)c3)cc12 | 290 nM
Clc1cc(Cl)c2cc(CN[C@H]3CCC[C@@H]3CNc3nc4ccccc4[nH]3)[nH]c2c1 | 270 nM
COc1cc(C=CC(=O)N2CCC3(CC2)CC(=O)c2ccccc2O3)cc(OC)c1OC | 760 nM
COc1ccccc1CN1CCC(NC(=O)c2ccc(-c3cccc(Cl)c3)s2)CC1 | 1420 nM
O=C(COc1ccc(F)cc1)NC1CCN(c2ccnc3cc(Cl)ccc23)C1 (stereo not drawn) | 270 nM
O=C(CC(=O)C(F)(F)F)c1ccc2c(c1)OCO2 | 740 nM
CN(C)CCN(C)Cc1ccc(-c2ccc3c(Nc4ccc(Oc5ccccc5)cc4)ccnc3c2)o1 | 180 nM
COc1ccc(-c2ccc(NC(=O)c3cccc(Cl)c3)cc2)cc1CN1CCCC1 | 710 nM
COc1ccc2nccc(N3CCC(CCNCc4ccc5c(n4)NC(=O)CS5)CC3)c2n1 | 230 nM
Cc1cccc2[nH]c(-c3ccc(-c4ccc(CNCc5ccc(S(C)(=O)=O)cc5)cc4)cc3)nc12 | 750 nM
COc1ccc(CCNc2nc(NCc3ccccc3)c3cc(OC)c(OC)cc3n2)cc1OC | 330 nM
COc1ccc2nccc([C@@H](O)CN3CCC(NCC4COc5ccccc5O4)CC3)c2c1 (stereo partly drawn) | 250 nM
COc1ccc2ncc(F)c(CCN3C[C@H](CNCc4ccc(F)cc4)[C@H](O)C3)c2n1 | 820 nM

SMILES | IC50
Clc1cccnc1N1CCN(c2ncccc2Cl)CC1 | 150 nM
COc1ccc(NC(C)C(=O)Nc2ccc(Br)cc2)cc1S(=O)(=O)N1CCCCC1 (stereo not drawn) | 220 nM
CC(C)N(C)C(=O)n1cnc(S(=O)(=O)C2C[C@@H]3CC[C@H]2C3)n1 (stereo partly drawn) | 60 nM
CC(C)(C)C(=O)N1CCN(c2ccc([N+](=O)[O-])c(NC3CC3)c2)CC1 | 940 nM
O=C(Nc1ccsc1C(=O)NC1CCCCC1)c1ccc(F)cc1 | 1210 nM
CC1=C(C(=O)Nc2ccc(Cl)cc2)C(c2ccncc2)n2nc(C(F)(F)F)nc2N1 (stereo not drawn) | 930 nM
COc1ccc(CCNCCCCCCNCCc2cccc([N+](=O)[O-])c2)cc1OC | 1000 nM
CC(C)c1ccc(CN2CCC(NC(=O)c3ccc(-c4cccc(Cl)c4)s3)CC2)cc1 | 1430 nM
Cn1c(-c2ccccc2)cc2c3c(N)nc(N)nc3ccc21 | 890 nM
CC(C)Cc1ccc(N2CCN(CCCCNC(=O)c3ccc(NC(=O)c4ccc(Cl)c(Cl)c4)cc3)CC2)cc1 | 1200 nM
CN1CCCN(Cc2ccc(-c3ccc(NC(=O)c4cccc(C#N)c4)cc3)cc2)CC1 | 880 nM
N[C@@H](Cc1ccc(O)cc1)C(=O)NC(c1ccccc1)c1c(O)ccc2ccccc12 (stereo partly drawn) | 690 nM
O=C(Nc1ccc(C(F)(F)F)cc1)NC1CCN(c2ccnc3ccccc23)CC1 | 180 nM
O=C(/C=C/c1ccc2ccccc2c1)NCCCCCN1CCC(c2c[nH]c3ccccc23)CC1 | 1230 nM
CCN(CC)c1cc(C)c2cc(NC(=O)c3cc(=O)c4ccccc4o3)ccc2n1 | 220 nM
O=C(Nc1cccc(CN2CCCN(CC3CCCCC3)CC2)c1)c1ccc(Cl)c(Cl)c1 | 960 nM
OC(CNc1ccnc(Nc2cccc(Cl)c2)n1)c1cccc(C(F)(F)F)c1 (stereo not drawn) | 510 nM
CC(=O)Nc1ccc(-c2nc3ccc(-c4nc5ccc(NC(C)=O)cc5[nH]4)cc3[nH]2)cc1 | 240 nM
O=C(O)c1ccc(-c2cnc3ccc(NC4CCC(O)CC4)nn23)cc1 (stereo not drawn) | 1000 nM
CCCCN1CCN(CCCNc2c3ccccc3nc3ccccc23)CC1 | 510 nM
N#Cc1ccc(N(CCOC(=O)c2ccccc2)Cc2ccccc2C(F)(F)F)cc1C(F)(F)F | 920 nM
O=C(O)c1ccc2nc(-c3ccccn3)c(-c3ccccn3)nc2c1 | 220 nM
CC(C)N1CCC(N(Cc2ccc(-c3ccc(C(F)(F)F)cc3)cc2)C(=O)Cn2c(SCc3cccc(F)c3F)cc(=O)c3ccccc32)CC1 | 820 nM
CC(C)C[C@@H](C(=O)N[C@@H](CCCCNC(=O)OCc1ccccc1)C(=O)Nc1nccs1)[C@H](C)N(O)C=O | 190 nM
Cc1c(C(=O)[C@@H]2C[C@H]2CN2CCC(N3CCCC3)CC2)sc2ccccc12 | 1400 nM

SMILES | IC50
Clc1ccc(Cn2nc(Br)nc2Br)c(Cl)c1 | 440 nM
Cn1nc(-c2cccc(CNCc3ccccc3)c2)c2cnc(NC3CCCC3)nc21 | 1260 nM
Cc1ccc(S(=O)(=O)NC2CCN(c3ccnc4cc(Cl)ccc34)C2)cc1 (stereo not drawn) | 620 nM
O=c1cc(NCCC(CNCc2ccoc2)NCc2cc(Br)cc(Br)c2)[nH]c2ccccc12 (stereo not drawn) | 910 nM
CCCCNCc1ccc(OCc2cccc(COc3ccc(CNCCCC)cc3I)c2)c(I)c1 | 1120 nM
Cc1cccc2[nH]c(-c3cccc(-c4cccc(NC(=O)c5ccc(C(N)=O)cc5)c4)c3)nc12 | 320 nM
COC(=O)c1cccc(CNCc2cccc(-c3cccc(-c4nc5ccc(C(F)(F)F)cc5[nH]4)c3)c2)c1 | 170 nM
CCCC1N=C(N)N=C(N)N1c1cccc(C(F)(F)F)c1 (stereo not drawn) | 590 nM
Nc1nc(N)c2c(Oc3cccc(Cl)c3)cccc2n1 | 470 nM
COc1ccc(NC(=O)/C=C/c2ccccc2Cl)cc1OCCN1CCC(N2CCCCC2)CC1 | 900 nM
C=CCN1C(=O)C(=Cc2cc(Br)ccc2O)SC1=Nc1ccccc1 | 900 nM
CCC[C@@H]([C@@H](CC1CCCCC1)C(=O)NC(C(=O)Nc1nccs1)C(CC)c1ccccc1)N(O)C=O (stereo partly drawn) | 690 nM
C[C@H](Cc1ccc(C[C@@H](C)NC[C@H](O)c2cccc(Cl)c2)cc1)NC[C@H](O)COc1ccccc1 | 1170 nM
COc1ccc(CC2(CO)CCN(Cc3ccc(O)c(Cl)c3)CC2)cc1 | 860 nM
Cc1cccc2[nH]c(-c3ccc(-c4ccc(CN5CCC(C(N)=O)CC5)cc4)cc3)nc12 | 930 nM
O=[N+]([O-])c1ccc(CNCCCCCCNCc2ccc([N+](=O)[O-])c3ccccc23)c2ccccc12 | 790 nM
CCn1c(-c2nonc2N)nc2c(-c3cc4ccccc4s3)ncc(C(=O)N3CCC(N)C3)c21 (stereo not drawn) | 870 nM
COc1ccc(O)c(CN2CCN(c3cc(C)ccc3C)CC2)c1 | 1010 nM
CS(=O)(=O)c1ccc(CNCc2ccc(-c3cccc(-c4nc5ccc(C(F)(F)F)cc5[nH]4)c3)cc2)cc1 | 140 nM
CCN(CC)C(=NCCCCCCCCN=C(/N=C(/N)Nc1ccc(Cl)cc1)N(CC)CC)/N=C(/N)Nc1ccc(Cl)cc1 | 400 nM
Cc1cc(N(C)C)nc(Nc2ccc(NC(=O)c3cccc(F)c3)cc2)n1 | 1000 nM
COc1cc(Br)c(NC(=O)Nc2ccc(C(F)(F)F)c(O[C@@H]3CCN(C)C3)c2)cc1OC | 630 nM
CN1CCN(c2cc(-c3cccnc3)nc(-c3ccncc3)n2)CC1 | 550 nM
